Assay results as given in ChEMBL document CHEMBL1144323, “Reversal of anticancer drug resistance by COTC based on intracellular glutathione and glyoxalase I” (Bioorg Med Chem Lett, 2005).

Assays:
Lactoylglutathione lyase = Lactoylglutathione lyase (Homo sapiens, UniProt Q04760); experiment: Inhibitory constant against Glyoxalase I
Homo sapiens = species on record: Homo sapiens; experiment: Effect of COTC on GSH level in human pancreatic adenocarcinoma cell was determined at 30 ug/mL of COTC; format: functional

Chain of Lactoylglutathione lyase (Q04760 whole entry): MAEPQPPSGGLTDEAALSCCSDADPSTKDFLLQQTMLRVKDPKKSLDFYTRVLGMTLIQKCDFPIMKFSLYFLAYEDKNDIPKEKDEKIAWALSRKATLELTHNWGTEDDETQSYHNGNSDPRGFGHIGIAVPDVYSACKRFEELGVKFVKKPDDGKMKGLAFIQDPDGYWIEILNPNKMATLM

Ki (Lactoylglutathione lyase) [µM]	SMILES	Decrease (Homo sapiens) [%]
183	NC(CCC(=O)NC(CSCC1=C[C@@H](O)[C@@H](O)[C@@H](O)C1=O)C(=O)NCC(=O)O)C(=O)O (some centres not stated)	
	C/C=C/C(=O)OCC1=C[C@@H](O)[C@@H](O)[C@@H](O)C1=O	40
